Results from patent publication US20240091324A1, “GASTROINTESTINAL HEALTH COMPOSITION” (priority 2019, published 2024).

Tests used:
Enterocyte [1] = assay: Observed therapeutic effective dose determined in the in vitro experiments (Table 4); format: cell-based, human
Description: (§1) The observed therapeutic effective dose was determined in the in vitro experiments described herein.
(§2) Table 4 summarises the observed therapeutic effective dose for each GaRP formulation component.

Macrophage [2] = assay: as above; format: cell-based, human
Description: as §1, §2

[3] = system: IL-8 release from Caco-2 monolayers; assay: Release of IL-8 from polarised Caco-2 monolayers stimulated with LPS, TNF-α, IFN-β; format: cell-based, human; details: for % increase in anti-inflammatory activity compared to equivalent formulation without bromelain (difference of means): plus 80 ug/ml bromelain
Description: Inflammatory model of Caco-2 polarised monolayer stimulated with inflammatory mediators LPS, TNF-α, IFN-β: Polarised Caco-2 models were generated as previously described. When cell cultures reached a baseline TER of >1000/cm^2, the monolayers were stimulated by addition of 0.6 ml containing 50 ng/ml IFN-β, 10 μg/ml LPS and 5 ng/ml TNFα to the basolateral compartment. Immediately after the addition of the stimulation cocktail 0.25 ml of GaRP±0-80 μg/ml bromelain was applied to the apical compartment. After the 24 h incubation culture supernatants from the apical side were collected for quantitation of IL-8.
The human colorectal adenocarcinoma cell-line C2BBe1 was grown and maintained in Dulbecco's modified Eagle's medium (DMEM) supplemented with 10% v/v fetal bovine serum (FBS), 4 mM L-glutamine, 100 U/ml penicillin and […] streptomycin. All experiments were conducted on C2BBe1 cells within 12 passages after thawing.
In an experiment to evaluate the anti-inflammatory effect of bromelain or various GaRP formulations, 0.25 ml of test samples was applied to the apical side for 24 h, at the same time 0.6 ml of a cocktail containing 50 ng/ml IFN+10 ug/ml LPS+5 ng/ml TNF was added to the basolateral side in this model. After the 24 h incubation culture supernatants from the apical side were collected and IL-8 quantitated by ELISA.

Macrophage [4] = details: menthol was not tested in vitro; published literature; cited from earlier work
Enterocyte [5] = details: menthol was not tested in vitro; published literature; cited from earlier work
[6] = system: Bacteria (AIEC obtained from IBD and IBS patients); details: menthol was not tested in vitro; published literature; cited from earlier work
TNBS colitis [7] = assay: Histological scoring of colitis in colon sections post treatment (Example 14); format: in vivo, C56/BL/6 mice; details: TNBS colitis mice, 2 mg/kg prednisolone
Description: Colitis was induced and treated C56/BL/6 mice from examples 11 and 12 were euthanised post treatment and the colons sectioned for histopathological analysis. Each bar represents the mean histopathology score for the treatment groups. Values of the number of animals, means, standard deviations and statistical significance relative to placebo are shown in parentheses.
In this example, the colon was fixed, stained and sectioned before being assessed by microscopy in a blinded manner. Colons were examined not only for active disease but evidence of recovery from disease and scored according to the following criteria. Scoring was performed in triplicate blinded to the scorer with a maximum score of 3 in each of 6 categories.
• Hypervascularization (opening of blood vessels) • Presence of mononuclear cells (architecture also disappear) • Epithelial hyperplasia (elongated crypt and villi) • Epithelial injury (loss of epithelial continuity) • Presence of neutrophils • Lymphoid aggregates (scored 0-2) 0,1-2, >2
Data were collated and analysed by student t test for significance against placebo control.

TNBS colitis [8] = assay: TNBS colitis mouse model with and without prednisolone, change in endoscopic score day 3 to day 11 (Example 12); format: in vivo, C56/BL/6 mice
Description: Colitis was induced in C56/BL/6 mice and 3 days after disease induction daily treatments commenced.
Mice were induced with colitis by administering TNBS in the same manner as example 11. After three days the lesions were scored by endoscopy and the animals treated with i). 150 mg/kg bromelain in water, ii) 150 mg bromelain and rectally administered threonine/sodium butyrate/vitamin D3, iii). 2 mg/kg oral prednisolone or iv). 150 mg bromelain and rectally administered threonine/sodium butyrate/vitamin D3 plus 2 mg/kg oral prednisolone. Endoscopic scores were measured at day 11 and the change in endoscopic score between day 3 and day 11 calculated (FIG. 16).
Groups are i) placebo, ii) 150 mg bromelain in water orally, iii) 150 mg bromelain & 15 mg/kg menthol orally plus GaRP rectally, iv) 150 mg bromelain & 15 mg/kg menthol orally plus GaRP and 2 mg/kg prednisolone rectally, v) 2 mg/kg prednisolone rectally, and vi) GaRP rectally. GaRP is sodium butyrate 185 mg/kg, threonine 280 mg/kg and Vitamin D3 3.84 micrograms per kg. […] The threonine, sodium butyrate and vitamin D3 were formulated and administered as a rectal gavage at the top of the colon to simulate a formulation which releases in the colon; i.e., to achieve administration to the lower intestine.

[9] = formulation or component plus 80 ug/ml bromelain, 24 h
[10] = without bromelain, test sample apical 24 h, IFN+LPS+TNF cocktail basolateral

| SMILES | % inhibition of the release of IL-8 Median ± SEM [3, 9] | % increase in anti-inflammatory activity compared to equivalent formulation without bromelain (difference of means) [3] | % inhibition of the release of IL-8 Median ± SEM [3, 10] | further results |
| --- | --- | --- | --- | --- |
| CCCC(=O)O [sodium butyrate] | 71 ± 7% | 60% | 11 ± 15% | observed therapeutic effective dose, Target cell Enterocyte (pg/cell) (Enterocyte [1]): 15 pg/cell; observed therapeutic effective dose, Target cell Macrophage (pg/cell) (Macrophage [2]): 300 pg/cell |
| CC1CCC(C(C)C)C(O)C1 (centres unmarked) [Menthol] | – | – | – | therapeutic effective dose, Target cell Macrophage (pg/cell) (Macrophage [4]): 20 pg/cell; therapeutic effective dose, Target cell Enterocyte (pg/cell) (Enterocyte [5]): 20 pg/cell; therapeutic effective dose, Target cell Bacteria (fg/cell) [6]: Not relevant |
| C[C@]12C=CC(=O)C=C1CC[C@@H]1[C@@H]2[C@@H](O)C[C@@]2(C)[C@H]1CC[C@]2(O)C(=O)CO [prednisolone, Prednisolone] | – | – | – | Histological score of colitis, Mean (TNBS colitis [7]): 3.5; Mean reduction in endoscopic score (TNBS colitis [8]; TNBS colitis mice, change day 3 to day 11, 2 mg/kg prednisolone): 4.25; mean improvement in endoscopic score at day 11 (TNBS colitis [8]; daily treatment from day 3, bromelain 150 mg/kg, menthol 15 mg/kg, prednisolone 2 mg/kg where present, GaRP rectally): 4.25 |
| CSCC[C@H](N)C(=O)O [L-methionine] | 73 ± 10% | 53% | 20 ± 5% | – |
| N=C(N)NCCC[C@H](N)C(=O)O [L-arginine] | 73 ± 8% | 67% | 6 ± 8% | – |
